The source of these data is paper PMC3314694, “Small Molecule Antagonists of the Wnt/Beta-Catenin Signaling Pathway Target Breast Tumor-Initiating Cells in a Her2/Neu Mouse Model of Breast Cancer” (PLoS ONE, 2012).

As usually defined, the IC50 is the point on the concentration scale where inhibition reaches its midpoint.

In experiment [1] the test system is tumorsphere-derived cells. The experiment can be described thus: Sphere forming assay, tumorsphere-derived cells. The experiment is classed as cell-based, mouse. An excerpt: (§1) To determine whether Wnt/β-catenin signaling was required for BTIC and mammary epithelial stem and progenitor cell function in vitro, we examined the effect of agonists and antagonists of Wnt/β-catenin signaling on sphere formation, which when performed under appropriate conditions is thought to be an attribute of stem/progenitor cells and TICs, [38], [39], [40]. We seeded dispersed cells dissociated from mammospheres and tumorspheres into media containing either Dkk1 or Wnt3a at concentrations previously shown to be sufficient to inhibit or activate the Wnt/β-catenin signaling pathway, respectively, [42]. Dkk1 is a secreted protein inhibitor [43], and Wnt3A is a stimulatory ligand of Wnt/β-catenin signaling. […] We used the small molecule BIO to inhibit GSKβ, a negative regulator of Wnt/β-catenin signaling.
(§2) We similarly tested pharmacological agents, which target Wnt/β-catenin signaling (PKF118–310, PKF115–584, CGP049090), for their affect on sphere formation. These inhibitors are specific antagonists of Wnt/β-catenin signaling that interrupt the […] step in pathway activation, namely the interaction between β-catenin and Tcf/Lef transcription factors. We seeded freshly isolated primary tumor cells and primary mammary epithelial cells, as well as mammosphere- and tumorsphere-derived cells into medium containing various concentrations of the inhibitors.
(§3) The #3 and #4 mammary glands from virgin female FVB/N mice (6–8 weeks old) and mammary tumors were isolated as described previously, [56]. Mammospheres and tumorspheres were established from the bulk primary mammary epithelial and tumor cell population respectively as described previously. Serial passage of the mammospheres and tumorspheres was accomplished by mechanically dissociated the cells from spheres using titruation and reseeding the dispersed cells into fresh medium. Passage of the spheres was limited to 3–5 serial passages before the cells were harvested and RNA prepared. To induce a differentiation program in mammospheres in vitro, intact mammospheres were collected by centrifugation, the spheres were dissociated and the dispersed cells were plated at a density of 150,000 cells/ml on rat-tail collagen (Roche, Basel, Switzerland) coated 60 mm Petri dishes, [59]. The cells were incubated for a week before they were harvested and used to prepare cellular RNA for analyses.
(§4) Sphere and colony forming assays were completed as previously described. Dkk1 and Wnt3A were obtained from RnDSystems (Minneapolis, Minnesota). PKF118–310, PKF115–584 and CGP049090 were a gift from Novartis (Basel, Switzerland).
(§5) The 50% inhibitory concentration (IC50) of compounds was calculated using GraphPad Prism5 software. X-axis values were X = Log(X) transformed and then fit with a dose-response curve. The DMSO vehicle control was included to aid IC50 calculation and was assigned a 1 nM concentration of the tested compound.

In experiment [2] the test system is mammosphere-derived cells. The experiment can be described thus: Sphere forming assay, mammosphere-derived cells. The experiment is classed as cell-based, mouse.
Source text: as §1, §2, §3, §4, §5

Experiment [3] deals with primary tumor cells. The experiment can be described thus: Sphere forming assay, primary tumor cells. The experiment is classed as cell-based, mouse. To be noted: for IC50: primary tumor cells; for selectivity (IC50 MMS/IC50 TMS) for primary tumor cells over primary mammary epithelial cells: sphere forming assays.
Source text: as §2, §3, §4, §5

Experiment [4] deals with primary mammary epithelial cells. The experiment can be described thus: Sphere forming assay, primary mammary epithelial cells. The experiment is classed as cell-based, mouse.
Source text: as §2
The #3 and #4 mammary glands from virgin female FVB/N mice (6–8 weeks old) and mammary tumors were isolated as described previously, [56]. Mammospheres and tumorspheres were established from the bulk primary mammary epithelial and tumor cell population respectively as described previously. Serial passage of the mammospheres and tumorspheres was accomplished by mechanically dissociated the cells from spheres using titruation and reseeding the dispersed cells into fresh medium. Passage of the spheres was limited to 3–5 serial passages before the cells were harvested and RNA prepared. […]

Experiment [5] relates to primary tumor cells. The experiment can be described thus: Secondary sphere-forming assay (self-renewal), primary tumor cells. The experiment is classed as cell-based, mouse. The settings on record: 1 µM during 4-day primary sphere assay; secondary spheres in medium lacking inhibitor. The text has this: (§6) To learn whether the inhibitory compounds affected the self-renewal of sphere-forming cells, we investigated the capacity of cells exposed to the compounds to serially form spheres. In short, dispersed primary mammary epithelial cells and primary tumor cells were exposed to PKF118–310 during a 4-day primary sphere-forming assay. The spheres that formed were counted, the cells dissociated from the spheres and the dispersed cells plated to form secondary spheres in fresh medium lacking the inhibitors.

For experiment [6], the system named is primary mammary epithelial cells. The experiment can be described thus: Secondary sphere-forming assay (self-renewal), primary mammary epithelial cells. The experiment is classed as cell-based, mouse. The settings on record: 1 µM during 4-day primary sphere assay; secondary spheres in medium lacking inhibitor.
Source text: as §6

Experiment [7] relates to primary tumor cells (BTIC). The experiment can be described thus: Ex vivo treatment of primary tumor cells and transplant into syngeneic mice. The experiment is classed as in vivo, mouse. As for the experimental part:
We incubated freshly isolated primary tumor cells under sphere forming conditions in presence of vehicle (DMSO) or PKF118–310 (1 µM or 2.5 µM concentrations). After 4 days the spheres were collected, dissociated and equal numbers (5,000) of viable PKF118–310- and vehicle-treated cells were injected sub-cutaneously into the syngeneic mice. Upon endpoint, when the tumor in any individual mouse reached 10% of its weight (∼6 weeks) all the animals were sacrificed and the tumors harvested.
as §4

The subject of experiment [8] is pre-established breast tumors. The experiment can be described thus: In vivo compound administration to tumor-bearing mice. Further details: species or system mouse. The text has this: To determine whether PKF118–310 affected the growth of pre-established breast tumors and reduced BTIC frequency in vivo, we transplanted primary breast tumor cells into syngeneic mice and treated these hosts with PKF118–310 after the tumors had reached a volume of ∼1 cm^3. […] After treatment ceased the tumors in mice administered the vehicle were ∼3 fold larger than those in PKF118–310-treated mice (Fig. 4B, *p<0.05).
To uncover potential mechanisms whereby the compound halted tumor growth, we prepared sections from the tumors of both cohorts and stained them with Hematoxylin and Eosin (H&E). […] In some cases the cell-free areas contained material, characteristic of milk protein secretions. […] We also examined whether inhibition of tumor growth was accomplished by a reduction in cell proliferation and/or induction of apoptosis. We stained tumor sections for markers of proliferation (Ki67) and apoptosis (cleaved caspase-3 and TUNEL). We observed a significant decrease in the frequency of Ki67 positive tumor cell nuclei in the PKF118–310 treated tumor-bearing mice compared to their vehicle-treated counterparts (Fig. 4D&E). […] Tumors from PKF118–310 treated mice comprised approximately 3–4-fold fewer Ki67-positive cells than tumors from vehicle-treated mice. We similarly simultaneously stained the tumor sections with antibodies to a luminal lineage marker (CK8) and with those to each of two myoepithelial lineage markers (CK14 and alpha-smooth muscle actin [alpha-SMA). The vast majority of the cells in sections prepared from tumors of the vehicle-treated mice expressed only the luminal lineage marker in keeping with previous findings (data not shown). Tumor sections prepared from tumors of the mice administered PKF118–310 also only expressed the luminal lineage marker.
To learn whether administration of PKF118–310 to tumor-bearing mice inhibited Wnt/β-catenin signaling in tumors, we measured the abundance of Wnt/β-catenin target gene transcripts in the tumor cells.
Freshly isolated primary tumor (100,000) cells were suspended in 50% Matrigel (BD, Franklin Lakes, New Jersey), 45% phosphate buffered saline pH7.4 (PBS) and 5% fetal bovine serum (FBS) [Invitrogen, Carlsbad, California], and the cells were injected subcutaneously between the shoulders into syngeneic 6–8 week-old female mice (FVB/N strain). Mice were monitored by palpation weekly for the occurrence of tumors. When tumors reached roughly 1 cm^3, the mice were administered either the vehicle (0.1% DMSO) or PKF118–310 (0.85 mg/kg) dissolved in 0.1% DMSO by intra-tumoral injection for 5 consecutive days followed by a 2-day rest period before compound administration was repeated once. Tumor volume was measured twice weekly. At the end of the 12-day treatment cycle the mice were sacrificed and their tumors harvested for analysis. […] Viable tumor cells (assessed by TrypanBlue staining) from vehicle- and compound-treated mice were isolated as described above and 10,000 cells were transplanted subcutaneously into syngeneic mice (n = 20, treated; n = 20, untreated).
Paraformaldehyde fixed tumor fragments were embedded in paraffin, sectioned and stained with H&E. The tumor sections were de-paraffinized and rehydrated in ethanol (100-70% gradient) before immunofluorescent analysis. Antigen retrieval was performed in Antigen Unmasking Solution (Vector, Burlingame, California). Slides were blocked with 3% normal goat serum (Dako, Denmark) and incubated with primary antibodies for 2 hours at room temperature (Ki67, 1∶200 [ABCAM, Cambridge, Massachusetts]. Secondary antibodies (Invitrogen) were used at a 1∶200 dilution for 1 hour at room temperature.

For the next experiment, the system named is BTICs in tumors. The experiment can be described thus: Secondary transplant of tumor cells harvested from treated mice. The experiment is classed as in vivo. To be noted: 10,000 cells/mouse from treated mice. The text has this: The principal objective of our experiments was to learn whether inhibition of Wnt/β-catenin signaling targeted BTICs in tumors. […] We reasoned that if PKF118–310 selectively targeted BTICs in vivo, viable cells isolated from PKF118–310 treated tumor-bearng hosts would engraft and elicit tumor growth less efficiently relative to their vehicle-treated counterparts. To this end, we transplanted tumor cells by injecting them sub-cutaneously (n = 20, PKF118–310-treated; n = 20, vehicle-treated) between the shoulders of syngeneic mice (10,000 cells/mouse) and measured tumor latency in the PKF118–310-treated and vehicle-treated transplant cohorts. […]
Freshly isolated primary tumor (100,000) cells were suspended in 50% Matrigel (BD, Franklin Lakes, New Jersey), 45% phosphate buffered saline pH7.4 (PBS) and 5% fetal bovine serum (FBS) [Invitrogen, Carlsbad, California], and the cells were injected subcutaneously between the shoulders into syngeneic 6–8 week-old female mice (FVB/N strain). Mice were monitored by palpation weekly for the occurrence of tumors. […] Tumor volume was measured twice weekly. […] Viable tumor cells (assessed by TrypanBlue staining) from vehicle- and compound-treated mice were isolated as described above and 10,000 cells were transplanted subcutaneously into syngeneic mice (n = 20, treated; n = 20, untreated).

[9] abbreviates: 0.85 mg/kg, qRT-PCR, versus vehicle.

In the case of `O=C1Nc2cc(Br)ccc2/C1=C1/Nc2ccccc2/C1=N\O` [BIO], the “effect on sphere formation” value in [1] and in experiment [2] was “stimulated sphere formation” each time.
In the case of `Cn1ncnc2c(=O)n(C)c(=O)nc1-2` [PKF118–310], in the experiment on primary tumor cells [3], the IC50 came out at 580 nM and the “selectivity (IC50 MMS/IC50 TMS) for primary tumor cells over primary mammary epithelial cells” value is 2–3 fold. For the same molecule, in experiment [4], the IC50 was 1540 nM. 940 nM corresponded to half-maximal inhibition in experiment [1] (IC50). The same molecule came in with an IC50 in experiment [2] of 540 nM. Besides, the “reduction of capacity to form secondary spheres relative to vehicle” value with primary tumor cells [5] is approximately 10 fold. Further, in experiment [6], the “secondary mammosphere formation relative to vehicle” value is on record as “at the same frequency as the vehicle-treated mammary epithelial cells”. In experiment [7] (cells incubated with 1 µM for 4 days), the “tumor latency versus vehicle-treated cells” value is recorded as “longer latency”. Moreover, in experiment [7] (cells incubated with 1 µM for 4 days, 5,000 viable cells s.c.), the “tumor size at endpoint, smaller than vehicle-treated” value is on record as “approximately 50%”. For the same molecule, in experiment [7] (cells incubated with 1 µM for 4 days, 5,000 viable cells s.c., ∼6 weeks, control 0.49 g), the “tumor mass at endpoint” value amounted to 0.26 g. Also, the “tumor initiation after transplant” value in experiment [7] (cells incubated with 2.5 µM for 4 days, 5,000 viable cells s.c., ∼6 weeks) is listed as “failed to initiate tumor growth in any of the host mice”. Also, the “effect on tumor growth” value in experiment [8] (0.85 mg/kg intra-tumoral, 12 days (5 on, 2 off, 5 on)) is on record as “inhibited tumor growth”. The “tumor regression during treatment” value in experiment [8] (0.85 mg/kg, 12 days) is on record as “did not induce significant tumor regression”. Moreover, in experiment [8] (setting [9]), the “abundance of axin2 transcripts in tumors” value was “significantly lower” and the “abundance of cyclin D1 transcripts in tumors” value was “significantly lower”. In addition, in experiment [8] (0.85 mg/kg, t = 12 days), the “tumor volume after treatment, vehicle larger than treated” value is on record as approximately 3 fold. In [8] (0.85 mg/kg, tumor sections), the “Ki67-positive cells, fewer than in vehicle tumors” value is given as 3–4 fold and the “cleaved caspase-3 or TUNEL staining (apoptosis) in tumors” value is “did not observe any positive staining”. For the same molecule, the “mice remaining tumor free” value in the experiment on BTICs in tumors (12 week follow-up) stood at 85%. Further, in the experiment on BTICs in tumors (vehicle 20/20), the “mice forming tumor grafts” value is 3 of 20.
On to PKF115–584, for which the IC50 came out at 310 nM in the experiment with primary tumor cells [3], 2050 nM in experiment [4], 1340 nM in experiment [1] and 1390 nM in experiment [2]. Besides, in the experiment on primary tumor cells [3], the “selectivity (IC50 MMS/IC50 TMS) for primary tumor cells over primary mammary epithelial cells” value is listed as 6–7 fold.

B1: Dkk1: secreted protein inhibitor of Wnt/β-catenin signaling, from RnDSystems (protein, UniProt O94907 32-266, looked up)
Dickkopf-related protein 1: TLNSVLNSNAIKNLPPPLGGAAGHPGSAVSAAPGILYPGGNKYQTIDNYQPYPCAEDEECGTDEYCASPTRGGDAGVQICLACRKRRKRCMRHAMCCPGNYCKNGICVSSDQNHFRGEIEETITESFGNDHSTLDGYSRRTTLSSKMYHTKGQEGSVCLRSSDCASGLCCARHFWSKICKPVLKEGQVCTKHRRKGSHGLEIFQRCYCGEGLSCRIQKDHHQASNSSRLHTCQRH
With B1, the “effect on sphere formation” value in [1] and in [2] was “reduced sphere formation” in each case.

B2: Wnt3A: stimulatory ligand of Wnt/β-catenin signaling, from RnDSystems (protein, UniProt P56704 19-352, looked up)
Protein Wnt-3a: SYPIWWSLAVGPQYSSLGSQPILCASIPGLVPKQLRFCRNYVEIMPSVAEGIKIGIQECQHQFRGRRWNCTTVHDSLAIFGPVLDKATRESAFVHAIASAGVAFAVTRSCAEGTAAICGCSSRHQGSPGKGWKWGGCSEDIEFGGMVSREFADARENRPDARSAMNRHNNEAGRQAIASHMHLKCKCHGLSGSCEVKTCWWSQPDFRAIGDFLKDKYDSASEMVVEKHRESRGWVETLRPRYTYFKVPTERDLVYYEASPNFCEPNPETGSFGTRDRTCNVSSHGIDGCDLLCCGRGHNARAERRREKCRCVFHWCCYVSCQECTRVYDVHTCK
On to B2, for which the “effect on sphere formation” value in experiment [1] and in [2] was “stimulated sphere formation” throughout.
